Results published in article PMC8710297, “Identification of potent SENP1 inhibitors that inactivate SENP1/JAK2/STAT signaling pathway and overcome platinum drug resistance in ovarian cancer” (Clinical and Translational Medicine, 2021).

Target: T1, SENP1(C603A) (Homo sapiens, UniProt Q9P0U3, C603A)
T1 construct: GST; made in house
T1 sequence (Q9P0U3 1-644 C603A): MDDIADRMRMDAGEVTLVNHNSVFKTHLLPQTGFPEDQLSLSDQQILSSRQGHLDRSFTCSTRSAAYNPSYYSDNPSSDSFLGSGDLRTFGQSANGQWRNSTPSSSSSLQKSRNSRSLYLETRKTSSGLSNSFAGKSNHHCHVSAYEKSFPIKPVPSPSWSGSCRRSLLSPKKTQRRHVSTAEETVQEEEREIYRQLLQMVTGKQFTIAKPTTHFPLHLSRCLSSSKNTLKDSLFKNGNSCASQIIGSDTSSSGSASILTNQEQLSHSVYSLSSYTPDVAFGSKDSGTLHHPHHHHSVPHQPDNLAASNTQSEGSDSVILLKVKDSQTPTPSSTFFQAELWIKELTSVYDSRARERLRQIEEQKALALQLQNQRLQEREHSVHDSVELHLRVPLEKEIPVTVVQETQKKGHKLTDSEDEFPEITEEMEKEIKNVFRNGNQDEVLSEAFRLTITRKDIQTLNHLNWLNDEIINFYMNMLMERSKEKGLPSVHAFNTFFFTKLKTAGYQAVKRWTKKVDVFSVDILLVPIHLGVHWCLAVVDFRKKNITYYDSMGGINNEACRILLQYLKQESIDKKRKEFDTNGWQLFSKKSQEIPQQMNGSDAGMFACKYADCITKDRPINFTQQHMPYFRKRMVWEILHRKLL
Assay: In vitro thermal shift assay with mutant GST-SENP1(C603A)
Format: binding
Conditions: compared to DMSO
Experimental: FIGURE 2 UA directly interacts with Sentrin‐specific protease 1 (SENP1). (A) Cellular thermal shift assay to examine the interaction of UA with SENP1. IGROV1 CR cells pretreated with MG132 (10 μM, 1 h) were incubated with DMSO or UA for 4 h before being shifted to indicated temperatures. SENP1 stability was analyzed by using Western blot against SENP1 antibody. Right panel, quantification of non‐denatured SENP1 fraction shown in the left panel. (B) Cell‐free thermal shift assay to examine interactions of UA with SENP1. Purified SENP1 proteins were incubated with DMSO or UA for 4 h before being shifted to the indicated temperatures. SENP1 stability was analyzed by using Western blot against SENP1 antibody. Right panel, quantification of non‐denatured SENP1 fraction shown in the left panel. (C) The predicted docking pose of UA (C: green; H: white; O: red) at the hydrophobic catalytic cleft of SENP1 (C: salmon; H: white; O: red; N: blue). Key amino acid residues were highlighted. […] Stability of SENP1(C603A) was analyzed by using Western blot against SENP1 antibody. […] Left; Ultra‐high performance liquid‐chromatography‐MS/MS analyses of associated UA in indicated samples, right; quantification of data shown in left (the binding affinity of UA with SENP1‐C603A was normalized as 1). […]
The qu anti ficatio n of immunohistochemical sta in ing wa s scored blindly at lea st by two independent obser vers. […]

| thermal stability of purified mutant SENP1(C603A) | SMILES |
| --- | --- |
| not increased | CC1(C)CC[C@]2(C(=O)O)CC[C@]3(C)C(=CC[C@@H]4[C@@]5(C)CC[C@H](O[C@@H]6O[C@H](C(=O)O)[C@@H](O)[C@H](O[C@@H]7OC[C@@H](O)[C@H](O)[C@H]7O)[C@H]6O)C(C)(C)[C@@H]5CC[C@]43C)[C@@H]2C1 [Mc, Momordin Ιc] |
| not increased | C[C@H]1[C@H](C)CC[C@]2(C(=O)O)CC[C@]3(C)C(=CC[C@@H]4[C@@]5(C)CC[C@H](O)C(C)(C)[C@@H]5CC[C@]43C)[C@H]12 [UA, ursolic acid, reference compound] |
